From US10947275B2, “Caged cell penetrating peptide-polymer conjugates for diagnostic and therapeutic applications” (Ben-Gurion University of the Negev Research and Development …, priority 2010, dated 2021)

Experiments:
B16 cells = assay: Caging of CPP activity via reversible electrostatic interactions with polyanions, flow cytometry; assay type: cell-based; settings: for mean fluorescence intensity of HPMA-CPP-FITC after pre-treatment with polyanion (masking of CPP activity): polyanion mixed with HPMA-CPP-FITC for 10 min, versus conjugate alone
Experimental: FIG. 7A-FIG. 7D depict FACS analysis results of B-16 cells incubated with HPMA-CPP-FITC conjugate mixed with different polyanions (Hep, FI, PGA, HA, P-GG, LMWH, Amb) for 10 min, and then added to B16-cell monolayers. Control cells were treated with HPMA-CPP-FITC conjugate only. FIG. 7A depicts results of B-16 cells incubated with HPMA-CPP-FITC conjugate mixed with Hep or FI. FIG. 7B depicts results of B-16 cells incubated with HPMA-CPP-FITC conjugate mixed with PGA or HA. FIG. 7C depicts results of B-16 cells incubated with HPMA-CPP-FITC conjugate mixed with P-GG or LMWH. FIG. 7D depicts results of B-16 cells incubated with HPMA-CPP-FITC conjugate mixed with Amb.
FIG. 8A-FIG. 8D depict FACS analysis results of stability testing of HPMA-CPP-FITC polyanion complexes incubated with B-16 cells at different time points. FIG. 8A depicts results of B-16 cells incubated with a complex of HPMA-CPP-FITC and the polyanion Hep. FIG. 8B depicts results of B-16 cells incubated with a complex of HPMA-CPP-FITC and the polyanion FI. FIG. 8C depicts results of B-16 cells incubated with a complex of HPMA-CPP-FITC and the polyanion LMWH. FIG. 8D depicts results of B-16 cells incubated with a complex of HPMA-CPP-FITC and the polyanion Amb.
FIG. 9A-FIG. 9D depict the reversible masking of CPP activity by polyanion complexes via the addition of protamine. FIG. 9A depicts the reversible masking of CCP activity by polyanion complexes comprising the polyanion fucoidan via the addition or protamine. FIG. 9B depicts the reversible masking of CCP activity by polyanion complexes comprising the polyanion LMWH via the addition or protamine. FIG. 9C depicts the reversible masking of CCP activity by polyanion complexes comprising the polyanion Heparin via the addition or protamine. FIG. 9D depicts the reversible masking of CCP activity by polyanion complexes comprising the polyanion P-GG-OH via the addition or protamine.
FIG. 10 depicts FACS analysis results of polyanion release from HPMA-CPP-FITC complexes by protamine was at the following order: LMWH>P-GG100%>Fl>Hep.
HPMA-CPP-FITC conjugate was mixed with various polyanions such as Polyglutamic acid (PGA); Fucoidan (FI); Heparin sulfate (Hep) Hyaluronic acid (HA); Low molecular weight heparin (LMWH), Amberlite IR120 (Amb) or Polyglycylglycine (P-GG) at a weight ratio of 3:1 or 5:1 in PBS. The solutions were left for 10 min at room temperature to allow HPMA-CPP-FITC-polyanion complex formation, and then added to B16 cell monolayers in growth medium The reversibility of masking the CPP activity in complexes was assessed following the addition of the counter polycation, protamine to the incubation medium. B16 cells were treated with HPMA-CPP-FITC-polyanion complexes for 10 min, and then the counter polycation protamine (4.7 KDa, 10-50 μg/ml, at the same weight ratio of HPMA conjugate) was added to the cells. Control cells were treated with HPMA-CPP-FITC-polyanion complexes without protamin. After 1 h, the cells were washed with PBS, harvested with trypsin and the cell associated fluorescence was analyzed by flow cytometry.
HPMA-CPP-FITC conjugate was mixed with different polyanions (Hep, FI, PGA, HA, P-GG, LMWH, Amb) and then added to B16-cell monolayers and compared to control cells treated with HPMA-CPP-FITC conjugate alone (FIGS. 7A-7D).
The masking of CPP activity by the polyanion complexes was readily reversible following the addition of the polycation, protamine (4.7 KD) (FIGS. 9A-9D). Greater intensity is readily seen in protamine treated (black lines) versus untreated (gray lines) samples.
The efficiency of polyanion release from HPMA-CPP-FITC complexes by protamine was at the following order: LMWH>P-GG100%>FI>Hep (corresponding to outermost versus innermost graphs) (FIG. 10).

[1] = Uncaging kinetics of cCPP under UV illumination, HPLC; assay type: physicochemical; settings: cCPP 200 μM, 8 minutes UV illumination (700 μW/cm2; λ=365 nm), HPLC-UV 230 nm
Experimental: FIG. 2 depicts the uncaging kinetics of cCPP as a function of light illumination time (365 nm) as determined with HPLC.
Uncaging kinetics of cCPP. cCPP (200 μM) was dissolved in 100 μL MOPS buffer at pH=7.4 and exposed to UV light illumination (UV lamp 6 W; =365 nm). Aliquots (30 μL) were removed at various time points, immediately kept frozen, in dark until analyzed by HPLC. The molar fraction of cCPP was calculated from its HPLC peak area.
CPP with 3 Mtt-protected Lys, Ac-KRRMK^MttWK^MttK^Mtt (KRRMKWKXK SEQ ID NO: 6) was synthesized on a solid phase via Fmoc chemistry on a MBHA Resin. CPP was then modified to include 3 photolabile protecting groups on Lys side chains to give the caged CPP (cCPP), Ac-KRRMK^NvocWK^NvocK^Nvoc. The identity and purity (>90%) were determined by HPLC and MALDI-TOF mass spectrometer. In order to study the uncaging kinetics of the peptide, a solution of cCPP (200 μM) was exposed to UV light illumination (700 μW/cm2; λ=365 nm). Aliquots were removed at various time points, and then evaluated by high performance liquid chromatography with UV detection (HPLC-UV) at 230 nm. The molar fraction of cCPP was calculated from its HPLC peak (FIG. 2). 8 minutes of illumination were sufficient to attain >80% of uncaged CPP, and thus further experiments were therefore undertaken with 8-10 min of light illumination. […]

PC-3 cells = assay: Light-mediated cytotoxicity, MTT assay, illumination time and dose dependence; assay type: cell-based; settings: 80 μM dose (or equivalent dose of M-(cCPP)-KLAK), 15 min of light illumination
Experimental: FIG. 6A depicts illumination time-dependence and dose-dependence of the viability of PC-3 cells incubated with 80 μM (solid blue), 40 μM (dashed blue), 20 μM (dots blue) M-(cCPP)-KLAK (KLAK equiv), 80 μM KLAK (solid green), and 80 μM M-(cCPP) (solid red), as determined by MIT assay. The results presented are the average of 3 independent experiments, in duplicates. Untreated control cells corresponded to 100% viability. FIG. 6B depicts light-induced cell cytotoxicity of polymer-KLAK conjugates and free KLAK against various cell-types including A431 cells (top left graph), PC-3 cells (top right graph), 3LL cells (bottom left graph) and SW480 cells (bottom right graph). Cells were incubated with 60 μM KLAK equivalent M-(cCPP)-KLAK (dark column), M-(cCPP) (gray column) or 60 μM KLAK (white column) and were illuminated immediately with UV light (365 nm) for 8 minutes followed by 2 hours incubation at 37° C. Cell viability was analyzed by MIT assay.
The cytotoxicity of M-cCPP-KLAK, M-cCPP and o(KIAKLAK) (SEQ ID NO: 5)2, was assessed using a modified 3-(4,5-dimethylthiazol-2-yl)-2,5-diphenyltetrazolinium bromide (MTT). All concentrations of KLAK-HPMA copolymers used for these experiments are expressed in KLAK equivalents. All solutions were sterilized by filtering through a 0.2-μm membrane filter. […] The absorbance of each sample was measured at 570 nm. […]

Substance: Fucoidan [FI]
- mean fluorescence intensity of HPMA-CPP-FITC after pre-treatment with polyanion (masking of CPP activity) (B16 cells): significantly reduced
- order of efficiency of polyanion release from HPMA-CPP-FITC complexes by protamine (B16 cells): LMWH>P-GG100%>FI>Hep

Substance: Heparin sulfate
- mean fluorescence intensity of HPMA-CPP-FITC after pre-treatment with polyanion (masking of CPP activity) (B16 cells): significantly reduced
- order of efficiency of polyanion release from HPMA-CPP-FITC complexes by protamine (B16 cells): LMWH>P-GG100%>FI>Hep

Substance: Ac-KRRMK^NvocWK^NvocK^Nvoc [cCPP]
- uncaged CPP attained [1]: > 80%

Substance: Levulinic acid-D(KLAKLAK)2
- toxicity towards PC-3 cells (PC-3 cells): no significant toxicity

Substance: Low molecular weight heparin [LMWH]
- mean fluorescence intensity of HPMA-CPP-FITC after pre-treatment with polyanion (masking of CPP activity) (B16 cells): significantly reduced
- order of efficiency of polyanion release from HPMA-CPP-FITC complexes by protamine (B16 cells): LMWH>P-GG100%>FI>Hep
